# According to patent US20190105367A1, “ANTIMICROBIAL 4-OXOQUINOLIZINES” (Emergent Product Development Gaithersburg Inc., priority 2011, published 2019):
# “And” between values parts separate entries of the source, which are not always exact repeats. Equal values may be shown once. Read-outs that look alike come from different tables or passages of the source.
# Assays:
# [1] = tested on: A. baumannii A14; assay: MIC without and with sub-inhibitory polymyxin B (Example 4); assay type: cell-based, Acinetobacter baumannii; details: 2nd experiment
# [2] = tested on: A. baumannii A472; assay: as above; assay type: cell-based, Acinetobacter baumannii; details: for MIC without PB/MIC + PB: ratio; for MIC without PB: without polymyxin B
# [3] = tested on: A. baumannii A390; assay: as above; assay type: cell-based, Acinetobacter baumannii; details: for MIC / MIC without PB/MIC + PB: 2nd experiment; for MIC without PB: without polymyxin B, 1st experiment
# [4] = tested on: A. baumannii A472; assay: Preliminary MBC without and with sub-inhibitory polymyxin B (Example 4); assay type: cell-based, Acinetobacter baumannii; details: preliminary MBC; for MBC without PB: without polymyxin B
# [5] = tested on: B. thailandensis; assay type: cell-based, Burkholderia thailandensis; details: for Dilutions improvement shift on B. thailandensis MIC90 (between pH 7 and pH 5): pH 7 vs pH 5
# [6] = Cytotoxicity (Example 7); assay type: cell-based; details: human, HEPG2 V1 cells
# Method: The 4-oxoquinolizine compounds of the invention preferably have a low cytotoxicity against human cells. […].
# Cytotoxicity was determined for the instant 4-oxoquinolizine compounds which show low cytotoxicity. (see Table 17 following). […]
# [7] = tested on: GN48 Klebsiella pneumoniae NCTC 13443 NDM-1-β-lactamase producing isolate; assay: Chequerboard synergy with polymyxin B, FICI (Example 6); assay type: cell-based
# Description: (§1) A chequerboard technique was used to identify possible synergistic or antagonistic interactions between the 4-oxoquinolizines compounds, levofloxacin and polymyxin B. Levofloxacin was included as a control. […] Final dilutions were made in Mueller-Hinton broth, the specific test medium used for MIC determinations according to CLSI guidelines (CLSI. Methods for Dilution Antimicrobial Susceptibility Tests for Bacteria That Grow Aerobically; Approved Standard-Eighth Edition (2009). CLSI Document M07-A8. CLSI, Wayne, Pa. 19087-1898, USA.). The test medium used was a cation-adjusted Mueller-Hinton Broth II (Becton Dickinson UK Ltd., Oxford Science Park, Oxford, UK, OX4 4DQ).
# (§2) The compounds 2, 33 and 35, as well as levofloxacin were tested in combination with polymyxin B on the following isolates: GN31 Acinetobacter baumannii—antibiotic susceptible clinical isolate, GN52 Acinetobacter baumannii—levofloxacin resistant clinical isolate, GN56 Acinetobacter baumannii—levofloxacin resistant clinical isolate, GN48 Klebsiella pneumoniae—NCTC 13443—NDM-1-metallo-β-lactamase and GN10 Pseudomonas aeruginosa—ATCC 27853—antibiotic susceptible reference isolate. All isolates are from the collection maintained at Quotient Bioresearch Ltd., Cambridge, UK.
# (§3) The MIC values for the compounds and polymyxin B and levofloxacin were determined by broth microdilution following CLSI guidelines, and the MICs of agents in combination were determined as described by Pillai et. al (Pillai S K, Moellering R C Jr, Eliopoulis G M; Antimicrobial Combinations in Antibiotics in Laboratory Medicine 5th Edition (V. Lorian Ed) (2005) p 365-440). Initial MIC results were used to determine the microtiter plate patterns for the chequerboards. A suitable doubling dilution concentration range was selected such that the combination antibiotic range was at least two concentrations above and four concentrations below the MIC for each isolate. A fixed range of 0.008 to 8 mg/L was tested for polymyxin B except in the case of A. baumannii GN31 where a range of 0.004 to 4 mg/L was tested when in combination with the compounds 2, 33 and 35 as well as levofloxacin.
# (§4) From the raw data, fractional inhibitory concentration indices (FICI) were determined for the compounds of the invention and levofloxacin together with polymyxin B for each isolate as follows:
# (§5) FICX=concentration of the combination antibiotic in a particular row MIC of the combination drug alone
# (§6) FICY=MIC of polymyxin B in combination[…]MIC of the polymyxin B alone
# (§7) Additionally isobolograms were created to represent the same data visually. Here, the MIC of polymyxin B was plotted against every concentration of the combination antibiotic up to the MIC.
# [8] = tested on: GN52 Acinetobacter baumannii levofloxacin resistant clinical isolate; assay: as above; assay type: cell-based
# Description: as §1, §2, §3, §4, §5, §6, §7
# [9] = tested on: GN56 Acinetobacter baumannii levofloxacin resistant clinical isolate; assay: as above; assay type: cell-based
# Description: as §1, §2, §3, §4, §5, §6, §7
# [10] = tested on: GN31 Acinetobacter baumannii antibiotic susceptible isolate; assay: as above; assay type: cell-based
# Description: as §1, §2, §3, §4, §5, §6, §7
# [11] = A. baumannii A14, +0.06 μg/ml PB
# [12] = A. baumannii A472, +[…] PB, 2nd experiment
# [13] = A. baumannii A472, +[…] polymyxin B, 1st experiment
# [14] = A. baumannii A472, 1st experiment
# [15] = A. baumannii A472, without PB, 2nd experiment
# [16] = A. baumannii A390, +0.06 μg/ml PB
# [17] = Acinetobacter baumannii, A472, A. baumannii A472, +[…] PB, 2nd experiment, read-out: MIC
# [18] = Acinetobacter baumannii, A472, read-out: MIC +[…] PB, A. baumannii A472, +[…] polymyxin B, 1st experiment
# [19] = Acinetobacter baumannii, A390, A. baumannii A390, +0.06 μg/ml PB, read-out: MIC
# [20] = Acinetobacter baumannii, A472, A. baumannii A472, +[…] PB, 2nd experiment, read-out: MBC
# [21] = Acinetobacter baumannii, A472, read-out: MBC +[…] PB, A. baumannii A472, +[…] polymyxin B, 1st experiment
# [22] = in combination with polymyxin B
# [23] = polymyxin B with the named antibiotic
compound,measurement,setting,value
"8-[(3S)-3-aminocyclopentyl]-1- cyclopropyl-7-fluoro-9-methyl- 4-oxo-quinolizine-3-carboxylic acid [Compound 10, reference compound]",MIC,[1]; [11],2 µg/mL
same,MIC without PB/MIC + PB,[1]; [11],1
same,MIC,"[1]; A. baumannii A14, without PB",2 µg/mL
same,MIC,[2]; [12],0.5 µg/mL
same,MIC +[…] PB,[2]; [13],0.5 µg/mL
same,MIC without PB/MIC + PB,[2]; [14],2
same,MIC,[2]; [15],1 µg/mL
same,MIC without PB,[2]; [14],1 µg/mL
same,MIC,[3]; [16],0.5 µg/mL
same,MIC without PB/MIC + PB,[3]; [16],2
same,MIC,"[3]; A. baumannii A390, without PB",1 µg/mL
same,MIC without PB,[3]; A. baumannii A390,1 µg/mL
same,MBC,[4]; [12],0.5 µg/mL
same,MBC +[…] PB,[4]; [13],0.25 µg/mL
same,MBC,[4]; [15],1 µg/mL
same,MBC without PB,[4]; [14],1 µg/mL
same,MIC90 B. thailandensis,[5],<0.048 µg/mL
same,Dilutions improvement shift on B. thailandensis MIC90 (between pH 7 and pH 5),[5],"Yes, 2x"
"NCC[C@H](O)C(=O)N[C@@H]1C[C@H](N)[C@@H](O[C@H]2O[C@H](CN)[C@@H](O)[C@H](O)[C@H]2O)[C@H](O)[C@H]1O[C@H]1O[C@H](CO)[C@@H](O)[C@H](N)[C@H]1O [Amikacin, reference compound]",MIC,[1]; [11],8 µg/mL
same,MIC without PB/MIC + PB,[1]; [11],2
same,MIC without PB/MIC + PB,[2]; [14],≥8
same,MIC,[2]; [17],32 µg/mL
same,MIC,[2]; [18],16 µg/mL
same,MIC without PB/MIC + PB,[3]; [16],≥2
same,MIC,[3]; [19],64 µg/mL
same,MBC,[4]; [20],32 µg/mL
same,MBC,[4]; [21],32 µg/mL
"Cc1c(-c2ccc(N)c(F)c2)ccn2c(=O)c(C(=O)O)cc(C3CC3)c12 [Compound 1, 8-(3-fluoro-4-amino-phenyl)-1-cyclopropyl-9-methyl-4-oxo-quinolizine-3-carboxylic acid]",MIC without PB/MIC + PB,[1]; [11],512
same,MIC,"[1]; Acinetobacter baumannii, A14, A. baumannii A14, +0.06 μg/ml PB, read-out: MIC",0.06 µg/mL
same,MIC,"[1]; Acinetobacter baumannii, A14, A. baumannii A14, without PB, read-out: MIC",32 µg/mL
same,MIC without PB/MIC + PB,[2]; [14],≥256
same,MIC,[2]; [18],≤ 0.03 µg/mL
same,MIC without PB/MIC + PB,[3]; [16],≥512
same,MIC,[3]; [19],≤ 0.03 µg/mL
same,IC50,[6],500 µM
same,MBC,[4]; [21],≤ 0.03 µg/mL
same,Dilutions improvement shift on B. thailandensis MIC90 (between pH 7 and pH 5),[5],"Yes, 4x"
"C[C@H]1COc2c(N3CCN(C)CC3)c(F)cc3c(=O)c(C(=O)O)cn1c23 [Levofloxacin, reference compound]",MIC,[1]; [11],16.00 µg/mL
same,MIC without PB/MIC + PB,[1]; [11],2
same,MIC without PB/MIC + PB,[2]; [14],4
same,MIC,[2]; [17],4 µg/mL
same,MIC,[2]; [18],4 µg/mL
same,Combination drug MIC alone,[7],64 µg/mL
same,FICx,[7],0.13
same,FICy,[7],1.00
same,FICI,[7]; combination with polymyxin B,1.13
same,Synergy,[7]; combination with polymyxin B,Indifferent (indifference (FICI 0.76 to 2.75))
same,Combination drug concentration in combination,[7]; [22],8 mg/L
same,Polymyxin B MIC in combination,[7]; [23],0.5 µg/mL
same,Combination drug MIC alone,[8],8 µg/mL
same,FICx,[8],0.13
same,FICy,[8],1.00
same,FICI,[8]; combination with polymyxin B,1.13
same,Synergy,[8]; combination with polymyxin B,Indifferent (indifference (FICI 0.76 to 2.75))
same,Combination drug concentration in combination,[8]; [22],1 mg/L
same,Polymyxin B MIC in combination,[8]; [23],0.5 µg/mL
same,Combination drug MIC alone,[9],32 µg/mL
same,FICx,[9],0.13
same,FICy,[9],1.00
same,FICI,[9]; combination with polymyxin B,1.13
same,Synergy,[9]; combination with polymyxin B,Indifferent (indifference (FICI 0.76 to 2.75))
same,Combination drug concentration in combination,[9]; [22],4 mg/L
same,Polymyxin B MIC in combination,[9]; [23],0.5 µg/mL
same,Combination drug MIC alone,[10],0.06 µg/mL
same,FICx,[10],0.13
same,FICy,[10],1.00
same,FICI,[10]; combination with polymyxin B,1.13
same,Synergy,[10]; combination with polymyxin B,Indifferent (indifference (FICI 0.76 to 2.75))
same,Combination drug concentration in combination,[10]; [22],0.008 mg/L
same,Polymyxin B MIC in combination,[10]; [23],0.5 µg/mL
same,MIC without PB/MIC + PB,[3]; [16],2
same,MBC,[4]; [20],4 µg/mL
C[C@@H](O)[C@H]1C(=O)N2C(C(=O)O)=C(S[C@@H]3CN[C@H](C(=O)N(C)C)C3)[C@H](C)[C@H]12 [Meropenem],MIC,"[1]; Acinetobacter baumannii, A14, A. baumannii A14, without PB, value in parentheses, read-out: MIC read with alamar blue",2 µg/mL
same,MIC,[2]; [17],≤ 0.125 µg/mL
same,MIC,[2]; [18],≤ 0.125 µg/mL
same,MIC,[3]; [19],2 µg/mL
same,MBC,[4]; [20],≤ 0.125 µg/mL
same,MBC,[4]; [21],≤ 0.125 µg/mL
COc1c(N2C[C@@H]3CCCN[C@@H]3C2)c(F)cc2c(=O)c(C(=O)O)cn(C3CC3)c12 [Moxifloxacin],MIC,[1]; [11],16 µg/mL
same,MIC without PB/MIC + PB,[1]; [11],2
same,MIC without PB/MIC + PB,[2]; [14],0.5
same,MIC,[2]; [17],4 µg/mL
same,MIC,[2]; [18],32 µg/mL
same,MIC without PB/MIC + PB,[3]; [16],2
same,MIC,[3]; [19],8 µg/mL
same,MBC,"[4]; Acinetobacter baumannii, A472, A. baumannii A472, +[…] PB, 2nd experiment",4 µg/mL
same,MBC,[4]; [21],4 µg/mL
Imipenem/cilastatin,MIC,[1]; [11],1 µg/mL
same,MIC,"[1]; A. baumannii A14, without PB",1 µg/mL
same,MIC,[2]; [12],0.25 µg/mL
same,MIC +[…] PB,[2]; [13],0.25 µg/mL
same,MIC,[2]; [15],8 µg/mL
same,MIC without PB,[2]; [14],16 µg/mL
same,MIC,[3]; [16],4 µg/mL
same,MIC,"[3]; A. baumannii A390, without PB",16 µg/mL
same,MIC without PB,[3]; A. baumannii A390,16 µg/mL
same,MBC,[4]; [12],0.25 µg/mL
same,MBC +[…] PB,[4]; [13],0.25 µg/mL
same,MBC,[4]; [15],8 µg/mL
same,MBC without PB,[4]; [14],16 µg/mL
Polymyxin B [reference compound],MIC,[1]; [11],0.25 µg/mL
same,MIC without PB/MIC + PB,[1]; [11],1
same,MIC,"[1]; A. baumannii A14, without PB",0.25 µg/mL
same,MIC,[2]; [12],0.25 µg/mL
same,MIC +[…] PB,[2]; [13],≤0.125 µg/mL
same,MIC without PB/MIC + PB,[2]; [14],≥4
same,MIC,[2]; [15],0.5 µg/mL
same,MIC without PB,[2]; [14],0.5 µg/mL
same,Polymyxin B MIC alone,[7],0.5 µg/mL
same,Polymyxin B MIC alone,[8],0.5 µg/mL
same,Polymyxin B MIC alone,[9],0.5 µg/mL
same,Polymyxin B MIC alone,[10],0.25 µg/mL and 0.5 µg/mL
same,MIC,[3]; [16],≤0.125 µg/mL
same,MIC without PB/MIC + PB,[3]; [16],≥2
same,MIC,"[3]; A. baumannii A390, without PB",0.25 µg/mL
same,MIC without PB,[3]; A. baumannii A390,0.25 µg/mL
same,MBC,[4]; [12],0.25 µg/mL
same,MBC +[…] PB,[4]; [13],≤0.125 µg/mL
same,MBC,[4]; [15],0.5 µg/mL
same,MBC without PB,[4]; [14],0.5 µg/mL
